Laboratory results reported in patent US20120115793A1, “PEPTIDOMIMETIC MACROCYCLES” (Alleron Therapeutics, Inc, priority 2008, published 2012).
pEC50, pKd: −log10 of the molar value. Like-named read-outs stand apart in the source and are kept apart here. Where a SMILES comes first, the peptide text is derived from it. Bridges are numbered along the chain shown (N, C = ends). [ ]: non-standard residue; d: D form. R8 = C=CCCCCCC[C@@](C)(N)C(=O)O; S5 = C=CCCC[C@](C)(N)C(=O)O; Abu = CC[C@H](N)C(=O)O

Legend:
[1] = tested on: human serum proteins (HSA); assay: Apparent affinity to human serum proteins (Kd*) by EC50 shift analysis; type: in vitro ADME
Description: The measurement of apparent Kd values for serum protein by EC50 shift analysis provides a simple and rapid means of quantifying the propensity of experimental compounds to bind HSA and other serum proteins. A linear relationship exists between the apparent EC50 in the presence of serum protein (EC'50) and the amount of serum protein added to an in vitro assay. This relationship is defined by the binding affinity of the compound for serum proteins, expressed as Kd*. This term is an experimentally determined, apparent dissociation constant that may result from the cumulative effects of multiple, experimentally indistinguishable, binding events. The form of this relationship is presented here in Eq. 0.3, and its derivation can be found in Copeland et al, Biorg. Med. Chem. Lett. 2004, 14:2309-2312.
A significant proportion of serum protein binding can be ascribed to drug interactions with HSA, due to the very high concentration of this protein in serum (35-50 g/L or 530-758 μM). To calculate the Kd value for these compounds we have assumed that the shift in EC50 upon protein addition can be ascribed fully to the HSA present in the added serum, where P is 700 μM for 100% serum, P is 70 μM for 10% serum, etc. We further made the simplifying assumption that all of the compounds bind HSA with a 1:1 stoichiometry, so that the term n in Eq. (0.3) is fixed at unity. With these parameters in place we calculated the Kd* value for each stapled peptide from the changes in EC50 values with increasing serum (and serum protein) concentrations by nonlinear regression analysis of Eq. 0.3 using Mathematica 4.1 (Wolfram Research, Inc., www.wolfram.com). EC'50 values in whole blood are estimated by setting P in Eq. 0.3 to 700 μM [HSA].
The free fraction in blood is estimated using the following equation, as derived by Trainor, Expert Opin. Drug Disc., 2007, 2(1):51-64, where [HSA] total is set at 700 μM.
The following macrocycles derived from the human MAML peptide sequences were tested in cell viability assays (described above) with the MOLT-4 tumor cell line at a range of human serum protein concentrations to determine their apparent affinity to human serum proteins and the projected EC50s in whole human blood: […]

Molt-4 cell line = type: cell-based
Protocol: Molt-4 cell line (ATCC catalog #CRL-1582) was grown in specific serum-supplemented media (RPMI-1640, Invitrogen catalog #72400) as recommended by ATCC. A day prior to the initiation of the study, cells were split at optimal cell density (2×10^5-5×10^5 cells/ml) to assure actively dividing cells. The next day, cells were washed twice in serum-free Opti-MEM media (Invitrogen, Catalog #51985) and cells were then plated at optimal cell density (10,000 cells/well) in 50 μl Opti-MEM media or Opti-MEM supplemented with 2%, 4% or 10% human serum (Bioreclamation, catalog #HMSRM) in 96-well white tissue culture plate (Nunc, catalog #136102).
For serum free experiment, peptidomimetic macrocycles were diluted from 2 mM stocks (100% DMSO) in sterile water to prepare 400 μM working solutions. The macrocycles and controls were diluted 10-fold first and then serially two-fold diluted in Opti-MEM in dosing plates to provide concentrations of between 1.2 and 40 μM. 50 μL of each dilution was then added to the appropriate wells of the test plate to achieve final concentrations of the polypeptides equal to between 0.6 to 20 μM. For studies using Opti-MEM supplemented with human serum (Bioreclamation, catalog #HMSRM), peptidomimetic macrocycles were diluted from 10 mM stocks (100% DMSO) in sterile water to prepare 2 mM working solutions. The peptide macrocycles and controls were diluted 10-fold first and then serially two-fold diluted in Opti-MEM in the presence of 2%, 4% or 10% of human serum to provide concentrations of the polypeptides equal to between 6.25 to 200 μM in dosing plates. 50 μL of each dilution was then added to the appropriate welts of the test plate to achieve final concentrations of the polypeptides equal to between 3.125 to 100 μM. Controls included wells without polypeptides containing the same concentration of DMSO as the wells containing the macrocycles, wells containing 0.1% Triton X-100 and wells containing no cells. Plates were incubated for 48 hours at 37° C. in humidified 5% CO2 atmosphere.
At the end of the incubation period, CellTiter-Glo assay was performed according to manufacturer's instructions (Promega, catalog #G7573) and luminescence was measured using Synergy HT Plate reader (BioTek).
The following macrocycles derived from the human MAML peptide sequences were tested in cell viability assays with the MOLT-4 tumor cell line: […]

SMILES | pKd ([1]; human) | fraction unbound ([1]; human, serum) | pEC50 (Molt-4 cell line; 48 h) | other results
CC[C@H](C)[C@H](NC(=O)[C@H](CCCNC(=N)N)NC(=O)[C@H](CCCNC(=N)N)NC(=O)[C@H](CCCNC(=N)N)NC(=O)[C@H](CC(C)C)NC(=O)[C@H](C)NC(C)=O)C(=O)N[C@@]1(C)CCCC=CCCC[C@@](C)(C(=O)N[C@@H](Cc2c[nH]cn2)C(=O)N[C@@H](Cc2c[nH]cn2)C(=O)N[C@@H](CO)C(=O)N[C@H](C(N)=O)[C@@H](C)O)NC(=O)[C@H](C)NC(=O)[C@H](CS)NC(=O)[C@H](CC(C)C)NC1=O [Compound 19, Ac-ALRRRI$LCA$HHST-NH2] (Ac-ALRRRI[S5]LCA[S5]HHST-NH2; staple 7-11) |  |  |  | fraction unbound ([1]; human, estimated with [HSA] total set at 700 μM, read-out: Free Fraction est. in blood): 0.001; pKd ([1]; nonlinear regression of EC50 shift with increasing human serum, 1:1 HSA binding assumed, 700 μM HSA for 100% serum, read-out: Serum Kd*): 6.22
CC[C@H](NC(=O)[C@H](CC(C)C)NC(=O)[C@H](CCC(=O)O)NC(=O)[C@@H](NC(=O)[C@H](CCCNC(=N)N)NC(=O)[C@H](CCCNC(=N)N)NC(=O)[C@H](CCCNC(=N)N)NC(=O)[C@H](CC(C)C)NC(=O)[C@H](C)NC(C)=O)[C@@H](C)CC)C(=O)N[C@@H](C)C(=O)N[C@]1(C)CCCCCCC=CCCC[C@@](C)(C(=O)N[C@@H](CCCNC(=N)N)C(=O)N[C@@H](Cc2ccc(O)cc2)C(=O)N[C@@H](CCC(=O)O)C(=O)N[C@@H](C)C(=O)N[C@H](C(N)=O)C(C)C)NC(=O)[C@H](CCC(=O)O)NC(=O)[C@H](CC)NC(=O)[C@H]([C@@H](C)O)NC(=O)[C@H](CO)NC(=O)[C@H](Cc2c[nH]cn2)NC(=O)[C@H](Cc2c[nH]cn2)NC1=O [Compound 25, Ac-ALRRRIELAbuA$r8HHSTAbuE$RYEAV-NH2] (Ac-ALRRRIEL[Abu]A[R8]HHST[Abu]E[S5]RYEAV-NH2; staple 11-18) |  |  |  | pEC50 (Molt-4 cell line; MOLT-4 cells, 48 hours incubation, CellTiter-Glo, read-out: Molt 4 viability (EC50)): < 4.70
CC[C@@H]1NC(=O)[C@H](CC(C)C)NC(=O)[C@@](C)(NC(=O)[C@@H](NC(=O)[C@H](CCCNC(=N)N)NC(=O)[C@H](CCCNC(=N)N)NC(=O)[C@H](CCCNC(=N)N)NC(=O)[C@H](CC(C)C)NC(=O)[C@H](C)NC(C)=O)[C@@H](C)CC)CCCC=CCCC[C@@](C)(C(=O)N[C@@H](Cc2c[nH]cn2)C(=O)N[C@@H](Cc2c[nH]cn2)C(=O)N[C@@H](CO)C(=O)N[C@H](C(=O)N[C@@H](C)C(=O)N[C@@H](CCC(=O)O)C(=O)N[C@@H](C)C(=O)N[C@@H](CCCNC(=N)N)C(=O)N[C@@H](Cc2ccc(O)cc2)C(=O)N[C@@H](CCC(=O)O)C(=O)N[C@@H](C)C(=O)N[C@H](C(N)=O)C(C)C)[C@@H](C)O)NC(=O)[C@H](C)NC1=O [Compound 26, Ac-ALRRRI$LAbuA$HHSTAEARYEAV-NH2] (Ac-ALRRRI[S5]L[Abu]A[S5]HHSTAEARYEAV-NH2; staple 7-11) |  |  | < 4.70 | 

More lines, main results first:

pKd ([1]; human) | fraction unbound ([1]; human, serum) | pEC50 (Molt-4 cell line; 48 h) | SMILES | other results
> 7.00 | < 0.001 |  | CC[C@H](C)[C@H](NC(=O)[C@H](CCCNC(=N)N)NC(=O)[C@H](CCCNC(=N)N)NC(=O)[C@H](CCCNC(=N)N)NC(=O)[C@H](CC(C)C)NC(=O)[C@H](CCCNC(=N)N)NC(=O)[C@H](CCC(=O)O)NC(C)=O)C(=O)N[C@@]1(C)CCCC=CCCC[C@@](C)(C(=O)N[C@@H](Cc2c[nH]cn2)C(=O)N[C@@H](Cc2c[nH]cn2)C(=O)N[C@@H](CO)C(=O)N[C@H](C(N)=O)[C@@H](C)O)NC(=O)[C@H](CCCNC(=N)N)NC(=O)[C@H](CS)NC(=O)[C@H](CC(C)C)NC1=O [Compound 1, Ac-ERLRRRI$LCR$HHST-NH2] (Ac-ERLRRRI[S5]LCR[S5]HHST-NH2; staple 8-12) | 
> 7.00 | < 0.001 | < 4.70 | CC[C@H](C)[C@H](NC(=O)[C@H](CCCNC(=N)N)NC(=O)[C@H](CCCNC(=N)N)NC(=O)[C@H](CCCNC(=N)N)NC(=O)[C@H](CC(C)C)NC(=O)[C@H](CCCNC(=N)N)NC(=O)[C@H](CCC(=O)O)NC(C)=O)C(=O)N[C@@]1(C)CCCC=CCCC[C@@](C)(C(=O)N[C@@H](Cc2c[nH]cn2)C(=O)N[C@@H](Cc2c[nH]cn2)C(=O)N[C@@H](CO)C(=O)N[C@H](C(N)=O)[C@@H](C)O)NC(=O)[C@H](CCCNC(=N)N)NC(=O)[C@H](C)NC(=O)[C@H](CC(C)C)NC1=O [Compound 4, Ac-ERLRRRI$LAR$HHST-NH2] (Ac-ERLRRRI[S5]LAR[S5]HHST-NH2; staple 8-12) | 
 |  | 5.43 | CC[C@@H]1NC(=O)[C@H](CC(C)C)NC(=O)[C@@](C)(NC(=O)[C@@H](NC(=O)[C@H](CCCNC(=N)N)NC(=O)[C@H](CCCNC(=N)N)NC(=O)[C@H](CCCNC(=N)N)NC(=O)[C@H](CC(C)C)NC(=O)[C@H](C)NC(=O)[C@H](CCCNC(=N)N)NC(C)=O)[C@@H](C)CC)CCCC=CCCC[C@@](C)(C(=O)N[C@@H](Cc2c[nH]cn2)C(=O)N[C@@H](Cc2c[nH]cn2)C(=O)N[C@@H](CO)C(=O)N[C@H](C(N)=O)[C@@H](C)O)NC(=O)[C@H](C)NC1=O [Compound 31, Ac-RALRRRI$LAbuA$HHST-NH2] (Ac-RALRRRI[S5]L[Abu]A[S5]HHST-NH2; staple 8-12) | 
